Test results taken from article PMC9841589, “Identification of 2-Aminoacyl-1,3,4-thiadiazoles as Prostaglandin E2 and Leukotriene Biosynthesis Inhibitors” (ACS Medicinal Chemistry Letters, 2022).

Columns and labels:
[1] = test system: 5-LO product formation in human M1 macrophages; test: Determination of LO products in human macrophages; format: cell-based; details: 10 µM, activated by Staphylococcus aureus for 90 min
Procedure: Figure S4. Human monocyte-derived macrophages were pre-treated with test compounds (10 µM) or vehicle 15 min prior stimulation. Cells were then stimulated with S. aureus for 90 min. Data are expressed as percentage of the mean of the 100% control DMSO of n=3 experiments. […]
Determination of LO products in human macrophages
Human M1 macrophages (2 x 10^6 /mL) were pre-treated with test compounds or vehicle (DMSO, 0.1%) for 15 min. Afterward, 1% Staphylococcus aureus 6850wt-conditioned medium (SACM) was added for 90 minutes at 37 °C in order to induce LO product formation. The reaction was stopped by transferring supernatants (1 mL) into 2 mL ice-cold MeOH. After addition of the deuterated LM standards (200 nM d8-5S-HETE, d4-LTB4, d5-LXA4, d5-RvD2, d4-PGE2 and 10 µM d8-AA; Cayman Chemical/Biomol GmbH, Hamburg, Germany), samples were kept at −20 °C for 60 min and then centrifuged (1,200×g, 4°C, 10 min). Solid-phase C18 cartridges were equilibrated with 6 mL methanol before the addition of 6 mL H2O. Then, 9 mL acidified H2O (pH 3.5, HCl) was added, and the samples were loaded onto the conditioned C18 columns that were subsequently washed with 6 mL H2O, followed by 6 mL n-hexane. The LM were eluted with 6 mL of methyl formate, samples were brought to dryness using an evaporation system (TurboVap LV, Biotage) and immediately […]
resuspended in methanol-water (50:50 vol/vol) for UPLC-MS-MS automated injections. The UPLC-MS-MS system consisted of an Acquity UPLC BEH C18 column (1.7 µm, 2.1 × 50 mm, Waters) and an AcquityTM UPLC (Waters) as well as a QTRAP 5500 mass spectrometer (Sciex, Darmstadt, Germany) equipped with an electrospray ionization source. The QTrap 5500 was operated in negative ionization mode using scheduled multiple reaction monitoring (MRM) coupled with the information-dependent acquisition (IDA) and an enhanced product ion scan (EPI). The scheduled MRM window was 90 s, and each LM parameter was optimized individually. LOX product analysis, using an MRM method with diagnostic ion fragments and identification, was performed as described previously.922 […]
Following incubations of 24 h, cells were collected with a cell scraper and, after centrifugation at 14000 × g for 10 min at 4 °C, the supernatant was collected and stored at −80°C for ELISA analysis 1023.
Male CD-1 mice (25–30 g of weight) were obtained from Charles River (Milan, Italy) and kept in an animal care facility under controlled temperature, humidity, with ad libitum access to water and standard laboratory chow diet. All experimental procedures were carried out according to the international and national law and policies (EU Directive 2010/63/EU for animal experiments, ARRIVE guidelines, and the Basel declaration including the 3R concept)11,1224, 25. […]

[2] = test system: LPS-stimulated J774A.1 macrophages; test: Determination of IL-6 and PGE2 in murine macrophages; format: cell-based, mouse; details: J774A.1, LPS 10 μg/mL, compound 1 μM, 24 h
Procedure: LOX product analysis, using an MRM method with diagnostic ion fragments and identification, was performed as described previously.922 Determination of IL-6 and PGE2 in murine macrophages Mouse macrophage cell line (J774A.1, ATCC® TIB-67™) was cultured in DMEM supplemented with FBS (ATCC® 30-2020™) to a final concentration of 10%. Cells were seeded in petri culture (100 × 20 mm, Falcon ®) at a density of 5 × 10^5 cells per dish and allowed to grow for dishes 24 h. The medium was then replaced, and cells were treated with LPS (10 ) in the presence or absence of μg/ml compounds 3, 6, 7, 9 (1 µM). Following incubations of 24 h, cells were collected with a cell scraper and, after centrifugation at 14000 × g for 10 min at 4 °C, the supernatant was collected and stored at −80°C for ELISA analysis 1023.

SMILES	cellular 5-LO product formation in pro-inflammatory macrophages [1]	IL-6 production [2]	PGE2 production [2]
O=C(Nc1nnc(-c2ccc(-c3cccc(O)c3)cc2)s1)c1ccccc1Br [compound 3]	potent inhibition of cellular 5-LO product formation	able to modulate	able to modulate
Cc1cc(C(=O)Nc2nnc(-c3ccc(-c4ccccc4N)cc3)s2)cc(Cl)n1 [compound 6]	potent inhibition of cellular 5-LO product formation	–	–
Nc1ccccc1-c1ccc(-c2nnc(NC(=O)c3ccccc3Br)s2)cc1 [compound 7]	potent inhibition of cellular 5-LO product formation	–	displayed a similar activity only in terms of PGE2 modulation
Nc1ccccc1-c1ccc(-c2nnc(NC(=O)c3c(Cl)ccnc3Cl)s2)cc1 [compound 9]	potent inhibition of cellular 5-LO product formation	–	–
